Measured values reported in ChEMBL document CHEMBL1201862, “PubChem BioAssay data set” (2004).
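Grown in 96-well plates, cells were treated for 48 hours with each compound at five concentrations. Insufficient inhibition: endpoint recorded as highest concentration tested. GI50 = concentration required for 50% inhibition of growth.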 Calls of active or inactive are those of the source. Rule as the data show it: active = GI50 up to about 1.1 µM and inactive = higher.

How the values were obtained:
Experiment in all cases: inhibition of tumour cell growth, NCI panel, 48 h
[1] = tested on: SNB-78
[2] = tested on: DMS-114
[3] = tested on: KM-20L2
[4] = tested on: DMS-273
[5] = tested on: SN12C
[6] = tested on: RPMI-8226
[7] = tested on: M14
[8] = tested on: SF-539
[9] = tested on: KM12
[10] = tested on: OVCAR-5
[11] = tested on: LOX IMVI
[12] = tested on: SR
[13] = tested on: DLD-1
[14] = tested on: CCRF-CEM
[15] = tested on: RXF 393
[16] = tested on: OVCAR-4
[17] = tested on: U-251
[18] = tested on: COLO 205
[19] = tested on: A549
[20] = tested on: NCI-H23
[21] = tested on: LXFL 529
[22] = tested on: ACHN
[23] = tested on: SK-MEL-2
[24] = tested on: SF-295
[25] = tested on: UACC-257
[26] = tested on: Malme-3M
[27] = tested on: SNB-19
[28] = tested on: OVCAR-8
[29] = tested on: TK-10
[30] = tested on: A498
[31] = tested on: NCI-H226
[32] = tested on: HOP-92
[33] = tested on: HCC 2998
[34] = tested on: HCT-116
[35] = tested on: XF498
[36] = tested on: HL-60
[37] = tested on: SNB-75
[38] = tested on: K562
[39] = tested on: CAKI-1
[40] = tested on: IGROV-1
[41] = tested on: SF-268
[42] = tested on: SK-MEL-28
[43] = tested on: SK-MEL-5
[44] = tested on: HCT-15
[45] = tested on: EKVX
[46] = tested on: HOP-18
[47] = tested on: SW-620
[48] = tested on: MOLT-4
[49] = tested on: HT-29
[50] = tested on: NCI-H460
[51] = tested on: OVCAR-3
[52] = tested on: UO-31
[53] = tested on: M19-MEL
[54] = tested on: HOP-62
[55] = tested on: SK-OV-3
[56] = tested on: 786-0
[57] = tested on: NCI-H522
[58] = tested on: UACC-62

With `CCCCCCCSCC1OC(n2cnc3c(N)ncnc32)C(O)C1O` (stereo unspecified) as the compound, how does the GI50 [1] read?
The GI50 was > 100 µM (inactive).

What about the GI50 [2] of the same compound?
The GI50 was 18 µM (inactive).

And the GI50 [3]?
The GI50 was > 100 µM (inactive).

And the GI50 [4]?
Its GI50 is 21.3 µM (inactive).

And the GI50 [5]?
The GI50 was 21.8 µM (inactive).

What about the GI50 [6] of the same compound?
The GI50 was 12.6 µM (inactive).

And the GI50 [7]?
Its GI50 is 22.5 µM (inactive).

And the GI50 [8]?
The GI50 was 32.7 µM (inactive).

What about the GI50 [9] of the same compound?
Its GI50 is 8.22 µM (inactive).

And the GI50 [10]?
The GI50 was > 100 µM (inactive).

What about the GI50 [11] of the same compound?
Its GI50 is 49.9 µM (inactive).

What about the GI50 [12] of the same compound?
The GI50 was 10 µM (inactive).

And the GI50 [13]?
The GI50 was 7.64 µM (inactive).

What about the GI50 [14] of the same compound?
Its GI50 is 39.4 µM (inactive).

What about the GI50 [15] of the same compound?
Its GI50 is > 100 µM (inactive).

What about the GI50 [16] of the same compound?
Its GI50 is 21.8 µM (inactive).

And the GI50 [17]?
Its GI50 is > 100 µM (inactive).

What about the GI50 [18] of the same compound?
Its GI50 is 14 µM (inactive).

And the GI50 [19]?
The GI50 was 31.8 µM (inactive).

What about the GI50 [20] of the same compound?
Its GI50 is > 100 µM (inactive).

What about the GI50 [21] of the same compound?
The GI50 was 12.3 µM (inactive).

And the GI50 [22]?
Its GI50 is 25.9 µM (inactive).

And the GI50 [23]?
The GI50 was 20.3 µM (inactive).

What about the GI50 [24] of the same compound?
Its GI50 is 18.7 µM (inactive).

And the GI50 [25]?
The GI50 was 18.3 µM (inactive).

And the GI50 [26]?
Its GI50 is 49.3 µM (inactive).

And the GI50 [27]?
The GI50 was 30.5 µM (inactive).

And the GI50 [28]?
Its GI50 is 14.4 µM (inactive).

And the GI50 [29]?
The GI50 was > 100 µM (inactive).

What about the GI50 [30] of the same compound?
The GI50 was 14.2 µM (inactive).

And the GI50 [31]?
The GI50 was > 100 µM (inactive).

What about the GI50 [32] of the same compound?
Its GI50 is 6.43 µM (inactive).

And the GI50 [33]?
Its GI50 is 20.9 µM (inactive).

What about the GI50 [34] of the same compound?
The GI50 was 3.59 µM (inactive).

And the GI50 [35]?
The GI50 was 63.4 µM (inactive).

And the GI50 [36]?
The GI50 was 3.01 µM (inactive).

What about the GI50 [37] of the same compound?
The GI50 was 24 µM (inactive).

And the GI50 [38]?
Its GI50 is 22.8 µM (inactive).

And the GI50 [39]?
Its GI50 is 5.08 µM (inactive).

And the GI50 [40]?
Its GI50 is 14.6 µM (inactive).

What about the GI50 [41] of the same compound?
Its GI50 is 34.2 µM (inactive).

And the GI50 [42]?
Its GI50 is > 100 µM (inactive).

And the GI50 [43]?
The GI50 was 16.2 µM (inactive).

And the GI50 [44]?
The GI50 was 4.5 µM.

And the GI50 [45]?
The GI50 was 20.5 µM (inactive).

What about the GI50 [46] of the same compound?
Its GI50 is 17.9 µM (inactive).

And the GI50 [47]?
The GI50 was 13.3 µM (inactive).

What about the GI50 [48] of the same compound?
The GI50 was 19.1 µM (inactive).

What about the GI50 [49] of the same compound?
The GI50 was 1.42 µM (inactive).

And the GI50 [50]?
Its GI50 is 16.5 µM (inactive).

`CSC(C1c2ccccc2N(C)c2[nH]c(=O)n(C)c(=O)c21)S(=O)(=O)c1ccc(C)cc1` (stereo unspecified) was tested. Which GI50 [51] did it give?
The GI50 was > 100 µM (inactive).

And the GI50 [1]?
Its GI50 is > 100 µM (inactive).

And the GI50 [2]?
The GI50 was > 100 µM (inactive).

And the GI50 [4]?
The GI50 was 43.5 µM (inactive).

And the GI50 [52]?
The GI50 was > 100 µM (inactive).

And the GI50 [5]?
Its GI50 is > 100 µM (inactive).

What about the GI50 [6] of the same compound?
The GI50 was > 10 µM (inactive).

And the GI50 [8]?
Its GI50 is 42.7 µM (inactive).

What about the GI50 [10] of the same compound?
The GI50 was > 100 µM (inactive).

What about the GI50 [53] of the same compound?
The GI50 was 40.3 µM (inactive).

What about the GI50 [11] of the same compound?
The GI50 was > 100 µM (inactive).

And the GI50 [54]?
The GI50 was > 100 µM (inactive).

And the GI50 [55]?
Its GI50 is > 100 µM (inactive).

What about the GI50 [56] of the same compound?
The GI50 was > 100 µM (inactive).

And the GI50 [13]?
Its GI50 is > 100 µM (inactive).

And the GI50 [14]?
The GI50 was 33.3 µM (inactive).

And the GI50 [16]?
The GI50 was > 100 µM (inactive).

What about the GI50 [17] of the same compound?
The GI50 was > 100 µM (inactive).

And the GI50 [18]?
Its GI50 is > 100 µM (inactive).

What about the GI50 [19] of the same compound?
The GI50 was > 100 µM (inactive).

What about the GI50 [20] of the same compound?
Its GI50 is 54.8 µM (inactive).

And the GI50 [57]?
The GI50 was 20.1 µM (inactive).

And the GI50 [21]?
Its GI50 is 56.4 µM (inactive).

And the GI50 [23]?
Its GI50 is > 100 µM (inactive).

What about the GI50 [24] of the same compound?
The GI50 was > 100 µM (inactive).

And the GI50 [25]?
The GI50 was 60 µM (inactive).

And the GI50 [26]?
The GI50 was > 100 µM (inactive).

What about the GI50 [27] of the same compound?
The GI50 was > 100 µM (inactive).

What about the GI50 [28] of the same compound?
The GI50 was > 100 µM (inactive).

What about the GI50 [29] of the same compound?
The GI50 was > 100 µM (inactive).

What about the GI50 [30] of the same compound?
The GI50 was > 100 µM (inactive).

And the GI50 [31]?
The GI50 was > 100 µM (inactive).

And the GI50 [32]?
The GI50 was > 100 µM (inactive).

And the GI50 [33]?
Its GI50 is > 100 µM (inactive).

What about the GI50 [34] of the same compound?
Its GI50 is 68.2 µM (inactive).

What about the GI50 [35] of the same compound?
Its GI50 is > 100 µM (inactive).

What about the GI50 [36] of the same compound?
The GI50 was 50.2 µM (inactive).

And the GI50 [37]?
Its GI50 is 68.5 µM (inactive).

And the GI50 [38]?
Its GI50 is 43.6 µM (inactive).

And the GI50 [39]?
The GI50 was > 100 µM (inactive).

And the GI50 [40]?
The GI50 was > 100 µM (inactive).

And the GI50 [41]?
Its GI50 is > 100 µM (inactive).

And the GI50 [58]?
Its GI50 is > 100 µM (inactive).

And the GI50 [42]?
Its GI50 is > 100 µM (inactive).

What about the GI50 [43] of the same compound?
The GI50 was > 100 µM (inactive).

What about the GI50 [44] of the same compound?
Its GI50 is 64.3 µM.

What about the GI50 [45] of the same compound?
Its GI50 is 33.6 µM (inactive).

What about the GI50 [46] of the same compound?
Its GI50 is > 100 µM (inactive).

What about the GI50 [47] of the same compound?
Its GI50 is > 100 µM (inactive).

What about the GI50 [48] of the same compound?
Its GI50 is 40 µM (inactive).

And the GI50 [49]?
The GI50 was > 100 µM (inactive).
